Source: US4740503A, “Novel 5-fluoro-2'-deoxyuridine derivatives and salts thereof, process for producing the same, and antitumor agents containing the same” (priority 1984, dated 1988)
Values joined by “and” are separate entries in the source; they are usually repeats but may differ in a detail not shown here. Equal values may be shown once.

What was measured:
Ehrlich carcinoma cells = experiment: Antitumor effect in Ehrlich carcinoma-bearing mice (tumor weight ratio to control); assay type: in vivo, ddY strain mice; conditions: i.p. once daily for 6 days, tumor weight on day 12 vs saline control
Protocol: Eight ddY strain mice (male, 5 weeks old, weight: about 25 g) per group were used, and 5×10^6 Ehrlich carcinoma cells were inoculated subcutaneously into the inguinal region of the mice. The test compound dissolved or suspended in a physiological saline solution was intraperitoneally administered to the mice once daily for 6 days from the day after the inoculation. As the control compound, FudR was used. To the control group was administered only the physiological saline solution.

[1] = Acute toxicity test (single intraperitoneal administration, LD50); conditions: mouse, in vivo, ip; single i.p. administration, male ddY mice, death judged on 14th day
Protocol: To ddY mice (male, 5 weeks old, 5 mice per group) was intraperitoneally administered the test compound dissolved or suspended in a physiological saline solution only one time. On the 14th day after the administration, the death of mouse was judged, and the LD50 value was calculated.

nucleoside phosphorylase = conditions: cited from earlier work
[2] = in vivo; cited from earlier work
[3] = cited from earlier work
[4] = in vitro, compared with 5-Fu; cited from earlier work
cells = conditions: FduMP per se; cited from earlier work
thymidylate synthetase = conditions: in cells, FduMP formed from FudR; cited from earlier work

Molecule	Effect (T/C (%)) (Ehrlich carcinoma cells; 1 μmole/kg/day) [%]	Effect (T/C (%)) (Ehrlich carcinoma cells; 3 μmole/kg/day) [%]	LD50 at 336 h [1] [mg/kg]	Effect (T/C (%)) (Ehrlich carcinoma cells; 10 μmole/kg/day)	also measured
5-Fluoro-2'-deoxy-5'-O-palmitoyl-β-uridine-3'-[2-(2-hydroxyethyldimethylammonio)ethyl]phosphate.hydrate [Test compound 11]	38	17			
CCCCCCCCCCCCCCCC(=O)OC[C@H]1O[C@@H](n2cc(F)c(=O)[nH]c2=O)C[C@@H]1OP(=O)([O-])OCC[N+](C)(C)C [Test compound 5]			> 200		
CCCCCCCCCCCCCCCC(=O)OC[C@H]1O[C@@H](n2cc(F)c(=O)[nH]c2=O)C[C@@H]1OP(=O)([O-])OCC[n+]1cnc[nH]1 [compound 10]	42	36		18%	
5-Fluoro-2'-deoxy-5'-O-hexanoyl-β-uridine-3'-(2-trimethylammonioethyl)phosphate.hydrate [Test compound 9]		38		21%	
CCCCCCCCC=CCCCCCCCC(=O)OC[C@H]1O[C@@H](n2cc(F)c(=O)[nH]c2=O)C[C@@H]1OP(=O)([O-])OCC[N+](C)(C)C [compound 8]	50	28	300		
O=c1[nH]c(=O)n([C@H]2C[C@H](O)[C@@H](CO)O2)cc1F [FudR, 5-fluoro-2'-deoxy-β-uridine]		87		67% and 77%	cleavage by nucleoside phosphorylase (nucleoside phosphorylase): easily cleaved by nucleoside phosphorylase; excretion [2]: rapidly excreted in vivo; metabolism [2]: metabolized to α-fluoro-β-alanine through 5-Fu; persistency [2]: poor in persistency; clinical toxicity [3]: high toxicity; clinical efficacy ([3]; compared with 5-Fu): only equivalent in efficacy to 5-Fu; Effect (T/C (%)) (Ehrlich carcinoma cells; 30 μmole/kg/day): 42%; cytocidal activity [4]: stronger cytocidal activity than 5-fluorouracil
CCCCCC(=O)OC[C@H]1O[C@@H](n2cc(F)c(=O)[nH]c2=O)C[C@@H]1OP(=O)([O-])OCC[N+](C)(C)C [compound 9]	50	32	500		
5-Fluoro-2'-deoxy-5'-O-palmitoyl-β-uridine-3'-[2-(1-pyrazolyl)ethyl]phosphate.hydrate [Example 7]	40	27			
CCCCCCCCCCCCCCCCCC(=O)OC[C@H]1O[C@@H](n2cc(F)c(=O)[nH]c2=O)C[C@@H]1OP(=O)([O-])OCC[N+](C)(C)C [Test compound 6]			200		
CCCCCCCCCCCC(=O)OC[C@H]1O[C@@H](n2cc(F)c(=O)[nH]c2=O)C[C@@H]1OP(=O)([O-])OCC[N+](C)(C)C [Test compound 7]			> 300		
5-Fluoro-2'-deoxy-3'-O-palmitoyl-β-uridine-5'-[2-(4-dimethylaminopyridinio)ethyl]phosphate.hydrate [Test compound 4]		22		19%	
CCCCCCCCCCCCCCCCCC(=O)O[C@H]1C[C@H](n2cc(F)c(=O)[nH]c2=O)O[C@@H]1COP(=O)([O-])OCC[N+](C)(C)C [Test compound 2]			188		
CCCCCCCC/C=C\CCCCCCCC(=O)O[C@H]1C[C@H](n2cc(F)c(=O)[nH]c2=O)O[C@@H]1COP(=O)([O-])OCC[N+](C)(C)C [Test compound 3]			200		
5-Fluoro-2'-deoxy-5'-O-palmitoyl-β-uridine-3'-{2-[4-(4-methyl)morpholinio]ethyl}phosphate.hydrate [Test compound 12]	24	10			
CCCCCCCCCCCCCCCC(=O)OC[C@H]1O[C@@H](n2cc(F)c(=O)[nH]c2=O)C[C@@H]1OP(=O)([O-])OCC[N+](C)(C)CCO [compound 11]	41	44		22%	
5-Fluoro-2'-deoxy-5'-O-palmitoyl-β-uridine-3'-[2-(2H-1,2,4-triazol-1-io)ethyl]phosphate.hydrate [Test compound 10]		66		34%	
O=c1[nH]c(=O)n([C@H]2C[C@H](O)[C@@H](COP(=O)(O)O)O2)cc1F [FduMP, 5-fluoro-2'-deoxyuridine-5'-monophosphate]					uptake by cells (cells): not taken up by cells; thymidylate synthetase inhibition (thymidylate synthetase): inhibits thymidylate synthetase
CCCCCCCCCCCCCCCC(=O)O[C@H]1C[C@H](n2cc(F)c(=O)[nH]c2=O)O[C@@H]1COP(=O)([O-])OCC[N+](C)(C)C [compound 1]		47	208	19%	Effect (T/C (%)) (Ehrlich carcinoma cells; 30 μmole/kg/day): 15%
CCCCCCCCCCCCCCCC(=O)OC[C@H]1O[C@@H](n2cc(F)c(=O)[nH]c2=O)C[C@@H]1OP(=O)([O-])OCC[N+]1(C)CCOCC1 [compound 12]	46	28			
